Where a SMILES comes first, the peptide text is derived from it. The star is where a group is joined. FITC = O=C1OC2(c3ccc(O)cc3Oc3cc(O)ccc32)c2ccc(NC(=S)*)cc21; βAla = NCCC(=O)O
Key:
MDA-MB-468 [1] = experiment: In vitro cellular uptake of FITC-labeled peptides by FACS; assay type: cell-based; conditions: 30 min, 37 °C; for Mean Fluorescence Intensity ± SD MDA-MB-468: soluble FITC-β-alanine-labeled peptide 1 µM, FBS free media, 10^5 or 10^6 cells/well, MFI of FITC positive cells, three independent experiments ± SD
Excerpt: (§1) Flow cytometry was employed to determine the cellular uptake of selected six peptides (1, 4, 22, 23, 26, and 27). As opposed to the membrane bound (conjugated) peptide in library screening, the peptides used here were soluble (or free) FITC-labeled peptides. Peptides were labeled with FITC in the N-terminal and a β-alanine residue was used as a spacer between the FITC and the peptide sequence. The same three TNBC cells lines (MDA-MB-468, MDA-MB-231 and MDA-MB-436) used for peptide array screening were used here as well. Peptides 1 and 4 were used as controls. […] Peptide 4 was included in this experiment to compare the uptake of this keratin 1 binding peptide with the EGFR binding peptides. Peptides 22, 23, 26, and 27 were identified as the best EGFR binding peptides from the library screening.
(§2) Fluorescence-activated cell-sorting (FACS) analysis was used to check the uptake of the FITC-peptides. The stock solution for the FITC-peptides (100 μM) was prepared by dissolving the peptides in sterile water/10% DMSO. MDA-MB-231, MDA-MB-468 and MDA-MB-436 cells were seeded in 6-well plates with 10^6/10^5 cells/well containing 3 mL media and the plates were incubated at 37 °C overnight. The following day, the media was replaced with fresh FBS free media (1 mL) containing FITC-labeled peptide (1 µM), and further incubated at 37 °C for 30 min. Thereafter the media was removed and the cells were washed with cold PBS to remove any remaining peptide. Adequate trypsin was added to each well followed by 3–5 min incubation at 37 °C. Trypsin was immediately neutralized by adding media and the cell suspension was transferred into centrifuge tubes. The cells were separated and washed twice with FACS sheath fluid. The control cells were treated similarly but without peptide. Two wells were assigned for each peptide and each well sample was read twice in FACS machine. The experiment was repeated once. MFI represents the average of all wells for each peptide.

MDA-MB-231 [2] = experiment: as above; assay type: cell-based; conditions: 30 min, 37 °C; for Mean Fluorescence Intensity ± SD MDA-MB-231: soluble FITC-β-alanine-labeled peptide 1 µM, FBS free media, 10^5 or 10^6 cells/well, MFI of FITC positive cells, three independent experiments ± SD
Excerpt: as §1, §2

MDA-MB-436 [3] = experiment: as above; assay type: cell-based; conditions: soluble FITC-β-alanine-labeled peptide 1 µM, 30 min, 37 °C, FBS free media, 10^5 or 10^6 cells/well, MFI of FITC positive cells, three independent experiments ± SD
Excerpt: as §1, §2

MCF-10A = experiment: Peptide array-whole cell binding assay; assay type: cell-based; conditions: non-tumorigenic cells; peptide conjugated to cellulose membrane (amino-PEG500); cells 75 × 10^3 cells/mL, 37 °C, 4 h; CyQUANT fluorescence relative to peptide 1; spots in duplicate
Excerpt: (§3) Peptide array on the cellulose membrane was used to evaluate the binding of each peptide to different cell lines. The amino functionalized cellulose membrane provided by Intavis is acid hardened providing high stability at pH range from 1–14, permitting its use in acidic or basic conditions while maintaining membrane integrity. The PEG linker on membrane surface functions as a hydrophilic spacer between the peptide and the solid surface (membrane) reducing background signal. Cell lines were carefully selected for screening peptides as our goal here is to screen peptides with high binding/uptake by the TNBC cells. […] EGFR is overexpressed by a number of TNBC cells such as MDA-MB-468 (obtained from primary tumor source) and MDA-MB-231 (from metastasis cancer tissue)[13],[14]. While other TNBC cells like MDA-MB-436 (obtained from metastasis cancer tissue) are known to express low levels of EGFR. Non-tumorigenic epithelial MCF10A and MCF12A cells derived from the breast tissue also express low levels of EGFR[14],[34]. We selected two TNBC cell lines with relatively high expression of EGFR expression (MDA-MB-468/231) and a TNBC cell line with low level of EGFR expression (MDA-MB-436) for the peptide array screening experiments. In addition, non- tumorigenic cell line, MCF-10A was used for comparison. These four cell lines were allowed to bind the membrane by seeding the cells on the membrane and the bound cells were labeled with a fluorescent dye CyQUANT.
(§4) For the binding assay, the peptide array was incubated with the cells in sequential steps as described previously. Briefly peptide array membrane was dipped in ethanol for 30 s to remove any precipitation on it, followed by dipping in sterile PBS (pH 7.4) for another 30 min. The cells (75 × 10^3 cells/mL) were seeded directly on the membrane in a sterile plate and incubated at 37 °C for 4 h. The unbound cells were washed out with sterile PBS (pH 7.4). Thereafter the membrane was placed in a sealed bag and transferred to −80 °C freezer for 2 h. Subsequently it was defrosted at room temperature and treated with CyQUANT solution. The CyQUANT concentration was optimized based on the manufacturer’s protocol and preliminary experiments. Membrane was incubated at 37 °C for 30 min with the dye. After washing with sterile PBS and air drying using blow dryer, the membrane was scanned using Bio-rad chemidoc imager with image lab software. The settings were adjusted based on the excitation (465 nm) and emission (535 nm) wavelengths of CyQUANT dye. Epi Blue was selected for the light source (455–485 nm) and filter number 4 (blue filter, 518–546 nm) was employed. The fluorescence intensity of cancer cells read using chemidoc imager was normalized using the non-cancer cell fluorescence intensity. Eventually relative fluorescence was assessed to select peptides with high affinity to cancer cells and low or minimal binding to normal cells.

MDA-MB-468 [4] = experiment: Peptide array-whole cell binding assay; assay type: cell-based; conditions: peptide conjugated to cellulose membrane (amino-PEG500), no free C-terminus; cells 75 × 10^3 cells/mL, 37 °C, 4 h; CyQUANT fluorescence relative to peptide 1; spots in duplicate
Excerpt: as §3, §4

MDA-MB-231 [5] = experiment: Peptide array-whole cell binding assay; assay type: cell-based; conditions: peptide conjugated to cellulose membrane (amino-PEG500), no free C-terminus; cells 75 × 10^3 cells/mL, 37 °C, 4 h; CyQUANT fluorescence relative to peptide 1; spots in duplicate
Excerpt: as §3, §4

MDA-MB-436 [6] = experiment: Peptide array-whole cell binding assay; assay type: cell-based; conditions: peptide conjugated to cellulose membrane (amino-PEG500), no free C-terminus; cells 75 × 10^3 cells/mL, 37 °C, 4 h; CyQUANT fluorescence relative to peptide 1; spots in duplicate
Excerpt: as §3, §4

[7] = Peptide stability in human serum; assay type: in vitro ADME; conditions: preliminary results, data not shown
EGFR on MDA-MB-231 cells = biological target: T1, EGFR on MDA-MB-231 cells (Homo sapiens, UniProt P00533); experiment: Competitive uptake by FACS with excess EGF protein or unlabeled peptide 1; assay type: cell-based; conditions: MDA-MB-231 cells (10^5), FITC-peptide 1 μM, 30 min
T1 construct: host or cells: MDA-MB-231
Description: The specific uptake of peptides 1 and 22 was evaluated using a competitive assay. First, MDA-MB-231 cells were incubated with peptide FITC-1 in the presence and absence of excess EGF protein (20-fold). […] The competition experiment was also repeated with peptide 22 in the presence and absence of EGF protein.
In addition, MDA-MB-231 cells (10^5) were incubated with varying concentration of peptide FITC-22 (0–6 μM). The resulting samples were treated as above, and the experiment was repeated. The fluorescence intensity of the FITC peptide-cell complex was plotted against peptide concentration. […] Control group was treated with media alone containing ~5% DMSO. Each group was done in duplicate and the experiment was repeated once.

breast cancer cells = conditions: compared to linear peptide 18–4; cited from earlier work
Excerpt: (§5) We found a region in EGF that may have structural similarity to peptide 22 (Fig. 4b). There is low sequence homology between the two sequences (peptide 22 and 12-residue region of EGF), however, based on the pr ...

[8] = cited from earlier work
Excerpt: as §5

[9] = biological target: T2, epidermal growth factor receptor (EGFR or ErbB1) (human (endogenous in MDA-MB-468, …, UniProt P00533 25-1210)); experiment: flow cytometry on cells; competition: MDA-MB-231 cells (10^5); EGF (20 µM, 20-fold excess) or unlabeled peptide 1 (100 µM, 100-fold excess) added first, then FITC-labelled peptide 1 or 22 (1 µM), 30 min; conditions: one partner purified
T2 construct: epidermal growth factor receptor, endogenous on human breast cell lines; expression levels are cited, not measured here; no isolated EGFR was used

[10] = soluble FITC-labeled peptide 1 µM

For CC[C@H](C)[C@H](NC(=O)[C@@H](NC(=O)[C@H](CC(N)=O)NC(=O)[C@H](CCC(=O)O)NC(=O)[C@@H]1CCCN1C(=O)[C@@H](NC(=O)[C@H](Cc1ccc(O)cc1)NC(=O)CNC(=O)[C@H](Cc1ccc(O)cc1)NC(=O)[C@H](Cc1c[nH]c2ccccc12)NC(=O)[C@H](Cc1c[nH]cn1)NC(=O)[C@@H](N)Cc1ccc(O)cc1)[C@@H](C)O)C(C)C)C(=O)O [Peptide 22] (H-YHWYGYTPENVI-OH), the “Uptake compared to peptide 1, MDA-MB-468” value (MDA-MB-468 [1]; [10]) was 123 fold, the “Mean Fluorescence Intensity ± SD MDA-MB-468” value (MDA-MB-468 [1]) was 8384 ± 735 and the “Uptake compared to peptide 1, MDA-MB-231” value (MDA-MB-231 [2]; [10]) was 47 fold. The “Mean Fluorescence Intensity ± SD MDA-MB-231” value (MDA-MB-231 [2]) was 1978 ± 522, the “Mean Fluorescence Intensity ± SD MDA-MB-436” value (MDA-MB-436 [3]) was 41 ± 27 and the “Relative Cell Adhesion MCF-10A” value (MCF-10A) was 1.2. For the same molecule, the “Relative Cell Adhesion MDA-MB-468” value (MDA-MB-468 [4]) was 1.6, the “Relative Cell Adhesion MDA-MB-231” value (MDA-MB-231 [5]) was 2.6 and the “Relative Cell Adhesion MDA-MB-436” value (MDA-MB-436 [6]) was 1.3. For the same molecule, the “Stability in the presence of human serum (in words)” value [7] was “short half-life”, the “FITC positive cells, no competitor” value (EGFR on MDA-MB-231 cells; rounded value) was 99% and the “Decrease in fluorescence / FITC positive cells in the presence of 20-fold excess EGF protein” value (EGFR on MDA-MB-231 cells; EGF 20 μM) was 97%. For the same molecule, the “FITC positive cells in the presence of 20-fold excess EGF protein” value (EGFR on MDA-MB-231 cells; EGF 20 μM, rounded value) was 2%.

With “FITC-AβYHWYGYTPQNVI [FITC-1, reference compound]” the “Decrease in fluorescence in the presence of 100-fold excess unlabeled peptide 1” value (EGFR on MDA-MB-231 cells; unlabeled peptide 1 100 μM) was 19.5%.

For “Peptide 1: previously reported EGFR targeting dodecapeptide GE11 (YHWYGYTPQNVI), lead peptide [reference compound]”, the “Mean Fluorescence Intensity ± SD MDA-MB-468” value (MDA-MB-468 [1]) was 68 ± 45, the “Mean Fluorescence Intensity ± SD MDA-MB-231” value (MDA-MB-231 [2]) was 42 ± 8 and the “Mean Fluorescence Intensity ± SD MDA-MB-436” value (MDA-MB-436 [3]) was 105 ± 11. The “Stability in the presence of human serum (in words)” value [7] was “short half-life”.

For “cyclic WXEAAYQkFL (head to tail) [N- to C terminal cyclized analogue of breast cancer targeting peptide 18–4, k is D-lysine]”, the “Uptake by the breast cancer cells compared to the linear peptide (in words)” value (breast cancer cells) is given as “higher uptake” and the “Stability toward proteolytic degradation (in words)” value [8] is given as “stable toward proteolytic degradation”.

B1: FITC-labeled soluble peptide 22 (peptide)
peptide: {FITC-βAla}-YHWYGYTPENVI-OH
notes: GE11 analogue, Q9E; also called peptide FITC-22; FITC-22; source: synthetic peptide (Fmoc-SPPS, RP-HPLC purified)
For B1, the “percent FITC positive cells, with 20-fold excess EGF” value [9] was 2%.

— publication PMC6389950, “Small Peptide Ligands for Targeting EGFR in Triple Negative Breast Cancer Cells” (Scientific Reports, 2019)
